# Measured values reported in patent US20140348861A1, “SYNTHETIC PEPTIDES AND RANDOM COPOLYMERS FOR THE TREATMENT OF AUTOIMMUNE DISORDERS” (NATIONAL INSTITUTE OF IMMUNOLOGY, priority 2011, published 2014).
# Non-standard residues stand in square brackets, D forms with d. Primed or numbered codes have the meaning given here. No end group written: not given here. Kβ(3) = beta-amino acid residue (Lys analogue); Kβ″ = beta-amino acid residue (K); β3hA = C[C@H](N)CC(=O)O; Yβ = β-tyrosine
# System: SJL/J mice exhibiting MBP (85-109) induced relapsing remitting form of EAE
# Assay: Therapeutic activity in MBP (85-109) induced relapsing remitting EAE, treatment from day 11
# Assay type: in vivo
# Settings: SJL/J mice, RR EAE; for Therapeutic activity in comparison to GA (Therapeutic activity (Analogs) − Therapeutic activity GA) / Therapeutic activity in comparison to J5 (Therapeutic activity (Analogs) − Therapeutic activity (J5)): 0.1 mg daily for two weeks; for Therapeutic activity = % reduction in cumulative clinical disability score: synthetic peptides, 0.1 mg daily for two weeks from day 11 post-immunization
# Description: SJL/J and C57BL6/J mice procured from Jackson's laboratory (Bar Harbor, Me.) were maintained under standard housing conditions in the central animal facility at NII as per institutional ethical committee guidelines. 8-10 week old female SJL/J mice were used throughout the study.
# To induce RR EAE or chronic progressive EAE, SJL/J or C57BL6/J mice were immunized subcutaneously with 0.2 mg of MBP (85-109) or 0.1 mg MOG (35-55) emulsified in CFA and 200 ng of pertussis toxin was injected intraperitoneally on day 0 and day 2 so as to permeablize the blood brain barrier. All the animals in various experimental groups were scored daily for clinical disability on a scale of 0-6 where 0=no neurological symptoms, 1=limp tail, 2=weakness of hind limbs or ataxia, 3=incomplete paralysis of hind limbs, 4=complete paralysis of hind limbs, 5=complete paralysis of all four limbs, 6=dead. Diseased animals were provided easy access to food and water.
# GA, J91, J92, S101, S102, S103 for two weeks and scored for clinical disability.
Substance,Therapeutic activity in comparison to GA (Therapeutic activity (Analogs) − Therapeutic activity GA) [%],Therapeutic activity in comparison to J5 (Therapeutic activity (Analogs) − Therapeutic activity (J5)) [%],Therapeutic activity = % reduction in cumulative clinical disability score [%]
KVEAYKβ [Analog S66],−9.412,−13.369,21.93
KVEAβYβKβAβAβAβAβ [Analog S61],8.6631,4.706,40
Vβ^3Eβ^3Aβ^3Yβ^3Kβ^3 [Analog S39],9.519,5.561,40.86
EKβPKβVβEβAβYβKβAβAβAβAβPAβ [Analog S52],−1.604,−5.5615,29.73
KVEAβ^3Yβ^3Kβ^3Aβ^3Aβ^3Aβ^3Aβ^3 [Analog S23],22.14,18.18,53.48
EKPKβ^3Vβ^3Eβ^3Aβ^3Yβ^3Kβ^3Aβ^3Aβ^3Aβ^3Aβ^3Pβ^3Aβ^3 [Analog S12],25.88,21.93,57.22
KVβEβAβYβKβ [Analog S70],−16.8984,−20.8556,14.4385
EKPKVEAYKβ^3Aβ^3Aβ^3Aβ^3Aβ^3Pβ^3Aβ^3 [Analog S6],19.47,15.51,50.8
"KVEAYK (Peptide analog) [Analog J5b, reference compound]",−10.9091,−14.8663,20.43
Kβ^3Vβ^3EAYβ^3Kβ^3Aβ^3Aβ^3Aβ^3Aβ^3 [Analog S26],27.91,23.96,59.25
EKPKVEAYKAAβAβAβPAβ [Analog S44],15.94,11.98,47.27
EKPKβVβEβAβYβKβAβAβAβAβPAβ [Analog S51],−4.92,−8.877,26.42
VEAYKβ (VEAY[Kβ″]) [Analog S73],−10.0535,−14.0107,21.28
EKPKVEAβ^3Yβ^3Kβ^3Aβ^3Aβ^3Aβ^3Aβ^3Pβ^3Aβ^3 [Analog S9],23.74,19.79,55.08
KVEAYKAβ^3Aβ^3Aβ^3Aβ^3 (KVEAYK[β3hA][β3hA][β3hA][β3hA]) [Analog S20],16.9,12.94,48.24
Kβ^3Vβ^3Eβ^3AβYβ^3Kβ^3AβAβAβ^3Aβ^3 [Analog S82],31.87,27.91,63.21
KVEAYβ^3Kβ^3Aβ^3Aβ^3Aβ^3Aβ^3 [Analog S22],17.43,13.48,48.77
VβEAYβKβ [Analog S78],−11.9037,−15.861,19.43

Substance,Therapeutic activity in comparison to GA (Therapeutic activity (Analogs) − Therapeutic activity GA) [%],Therapeutic activity in comparison to J5 (Therapeutic activity (Analogs) − Therapeutic activity (J5)) [%],Therapeutic activity = % reduction in cumulative clinical disability score [%]
EKPKVEAYKAAAAPAβ [Analog S41],2.032,−1.925,33.37
KVEAYβKβAβAβAβAβ [Analog S60],10.05,6.096,41.39
KVEAβ^3Yβ^3Kβ^3 [Analog S30],0.8556,−3.102,32.19
VEAYβKβ (VEA[Yβ][Kβ(3)]) [Analog S74],−9.947,−13.9037,21.39
EKPKVEAYKAAAAPβ^3Aβ^3 [Analog S2],2.139,−1.818,33.48
EKPKVEAβYβKβAβAβAβAβPAβ [Analog S48],22.89,18.93,54.2246
Vβ^3EAYβ^3Kβ^3 [Analog S40],13.9,9.947,45.24
KVβ^3Eβ^3Aβ^3Yβ^3Kβ^3 [Analog S32],11.23,7.273,42.57
KVEAYKAAβAβAβ [Analog S57],8.021,4.064,39.36
KVEβ^3Aβ^3Yβ^3Kβ^3Aβ^3Aβ^3Aβ^3Aβ^3 [Analog S24],20.32,16.36,51.66
VEβ^3Aβ^3Yβ^3Kβ^3 [Analog S38],−4.813,−8.77,26.52
EKPKVEAYKAAAβAβPAβ [Analog S43],9.947,5.989,41.28
KVEβ^3Aβ^3Yβ^3Kβ^3 [Analog S31],−1.818,−5.7754,29.52
EKPKVEAYβ^3Kβ^3Aβ^3Aβ^3Aβ^3Aβ^3Pβ^3Aβ^3 [Analog S8],23.85,19.89,55.19
Eβ^3Kβ^3Pβ^3Kβ^3Vβ^3EAYβ^3Kβ^3Aβ^3Aβ^3Aβ^3Aβ^3Pβ^3Aβ^3 [Analog S16],28.88,24.92,60.2139
Kβ^3Vβ^3Eβ^3Aβ^3Yβ^3Kβ^3 [Analog S33],14.44,10.48,45.7754
EKPKVβEβAβYβKβAβAβAβAβPAβ [Analog S50],−1.925,−5.882,29.41
EKPKVEAYKAβAβAβAβPAβ [Analog S45],23.53,19.57,54.87
